According to patent US10450549B2, “Aryloxyphenoxypropionate tolerance in turfrgass species and use of AAD1 as a selectable marker” (Dow AgroSciences, LLC, priority 2004, dated 2019):

What was measured:
AAD1 (v1) = target: T1, AAD1 (v1) (Sphingobium herbicidovorans, UniProt Q8KSC8); assay: Colorimetric phenol detection assay of AAD1 (v1) activity (purified enzyme or E. coli extract); type: biochemical; details: for A510, AAD1 / A510, AAD1 (10x): substrate 1 mM; for A510, AAD1: 1 μg purified AAD1 (v1) per 0.16 ml assay; for A510, AAD1 (10x): 10 μg purified AAD1 (v1) per 0.16 ml assay; for rate of product formation relative to 2,4-D / A510: 1 mM; for rate of product formation relative to 2,4-D: 27 μg crude recombinant AAD1 (v1) per assay; for A510 / % 2,4-D: Table 8; for A510: 27 μg crude recombinant AAD1 (v1) extract from E. coli; for % 2,4-D: relative to 2,4-D, crude AAD1 (v1) extract
T1 construct: made in house; host or cells: E. coli BL-21 Star (DE3), plasmid pDAB3203

[1] = tested on: Arabidopsis thaliana var. Columbia; assay: Arabidopsis plate test bioassay for herbicide degradation; type: in vivo; details: Arabidopsis thaliana, 168 h, read-out: GR50, Chemical alone
[2] = tested on: T4 Arabidopsis homozygous for AAD1 (v3) (line AAD1.01.315.076); assay: Foliar-applied auxinic herbicides on homozygous T4 AAD1 (v3) Arabidopsis, % injury 14 DAT; type: in vivo, Arabidopsis thaliana; details: foliar, 50-3200 g ae/ha
Experimental: The ability of AAD1 (v3) to provide resistance to other aryloxyphenoxyalkanoate auxin herbicides in transgenic Arabidopsis was determined by foliar application of various substrates described in Example 6.8. T4 generation Arabidopsis seed, homozygous for AAD1 (v3) (line AAD1.01.315.076) was stratified, and sown into selection trays much like that of Arabidopsis (Example 6.4). A transformed-control line containing PAT and the insect resistance gene Cry1F was planted in a similar manner. Seedlings were transferred to individual 3-inch pots in the greenhouse. All plants were sprayed with the use of a track sprayer set at 187 L/ha. […] All applications were formulated in 200 mM Hepes buffer (pH 7.5). Each treatment was replicated 3-4 times. Plants were evaluated at 3 and 14 days after treatment and are averaged over two experiments.

T1 sequence (Q8KSC8 whole entry): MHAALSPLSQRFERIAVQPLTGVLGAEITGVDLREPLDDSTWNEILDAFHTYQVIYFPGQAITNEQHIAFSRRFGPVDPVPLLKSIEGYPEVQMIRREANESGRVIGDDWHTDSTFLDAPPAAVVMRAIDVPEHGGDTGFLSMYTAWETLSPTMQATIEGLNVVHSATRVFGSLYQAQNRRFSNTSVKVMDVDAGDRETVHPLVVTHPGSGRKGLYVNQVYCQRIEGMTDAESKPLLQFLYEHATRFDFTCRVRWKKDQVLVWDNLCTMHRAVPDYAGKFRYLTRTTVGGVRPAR

SMILES | A510, AAD1 (AAD1 (v1); Table 4) | A510, AAD1 (10x) (AAD1 (v1); Table 4) | A510, AAD1 (AAD1 (v1); Table 3, 15 min) | A510, AAD1 (10x) (AAD1 (v1); Table 3, 15 min) | also measured
CC(Oc1ccc(Oc2nc3ccc(Cl)cc3s2)cc1)C(=O)O (racemic) [(R,S)- fenthiaprop] | 0.199 | 1.055 | – | – | –
Nc1c(Cl)ccc(OCC(=O)O)c1Cl [compound 11263526] | – | – | 0.004 | 0.069 | –
O=C(O)COc1ccc(Cl)c2cccnc12 [Cloquintocet] | 0 | 0.001 | – | – | activity of purified AAD1 (v1) on substrate (AAD1 (v1); 1 mM substrate, 1 or 10 μg enzyme): no activity
O=C(O)COc1cc(F)c(Cl)cc1Cl [5-F, 2,4-D] | – | – | – | – | rate of product formation relative to 2,4-D (AAD1 (v1)): 32%; A510 (AAD1 (v1)): 0.056; % 2,4-D (AAD1 (v1)): 32%
CCC(Oc1ccc(Cl)cc1Cl)C(N)=O (centres unmarked) [compound 192132] | – | – | 0.064 | 0.204 | –
CC(Oc1ccc(Oc2ncc(Cl)cc2Cl)cc1)C(=O)O (racemic) [(R,S)- chlorazifop] | 0.128 | 1.584 | – | – | –
O=C(O)CCCOc1ccc(Cl)cc1Cl [compound 178577] | – | – | 0.003 | 0.021 | –
CC(C)COC(=O)COc1ccc(Cl)cc1Cl [compound 190252] | – | – | 0.008 | 0.211 | –
Oc1ccc(Cl)cc1Cl [DCP, 2,4-dichlorophenol] | – | – | – | – | IC50 [1]: > 1 µM; effect of the metabolite on wildtype or transgenic Arabidopsis [2]: no effect
CC(Oc1cc(F)c(Cl)c(N)c1Cl)C(=O)O (racemic) [(R,S)-3-amino, 5-F-dichlorprop] | – | – | – | – | rate of product formation relative to 2,4-D (AAD1 (v1)): 125%; A510 (AAD1 (v1)): 0.221; % 2,4-D (AAD1 (v1)): 125%
